From US11365192B2, “Pyridine compound substituted with azole” (TAISHO PHARMACEUTICAL CO., LTD., priority 2017, dated 2022)

How the values were obtained:
Assay type in all cases: biochemical
[1] = biological target: human CYP4F2 (Homo sapiens (Human), UniProt P78329); assay: Inhibition test against 20-HETE producing enzyme CYP4F2 (luciferine derivative, luminescence)
How it was run: (§1)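 IC50 derived from luminescence after 60 min at room temperature with membrane fractions of E. coli expressing each human CYP (100 μg/mL protein). For CYP4A11, 60 μM luciferin derivative in 100 mM Tris-HCl pH 7.5 with NADPH-regenerating system; for CYP4F2, 2.5 μM substrate, 1 mM NADPH, 50 mM KPO4 pH 7.4.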

[2] = biological target: human CYP4A11 (Homo sapiens (Human), UniProt Q02928); assay: Inhibition test against 20-HETE producing enzyme CYP4A11 (luciferine derivative, luminescence)
How it was run: as §1

[3] = test system: 20-HETE producing enzymes, human kidney microsome; assay: Inhibition test against 20-HETE producing enzymes using human kidney microsomes (LC-MS/MS); settings: for inhibitory activities against 20-HETE producing enzymes compared to compound A and compound B: comparison with compound A and compound B of WO03/022821, human kidney microsomes; for IC50: human kidney microsome 250 μg/mL protein, 20 μM arachidonic acid, 37° C. 45 minutes, LC-MS/MS
Protocol: (1) Inhibition Test for Each Compound of the Present Invention Against 20-HETE Producing Enzymes Using Human Kidney Microsomes
The reaction solution containing each compound [final concentration of 100 mM, KPO4 (pH 7.4), 20 μM Arachidonic acid, 4 mM NADPH] was added to the human kidney microsome (250 μg/mL protein). Following this, the microsome was left to stand at 37° C. for 45 minutes to perform 20-HETE producing reaction. After adding formic acid to stop the reaction, 9 times amount of acetonitrile was added, and deproteinization was carried out by centrifugation (1000 rpm, 4° C., 10 minutes). After that, the peak area value of 20-HETE was measured using a liquid chromatograph-tandem mass spectrometer (LC-MS/MS), and by using that value, the percent inhibition of 20-HETE producing enzyme (%) was calculated according to the equation described below, and the 50% inhibitory concentration (IC50 value) for each compound was calculated. Percent inhibition of 20-HETE producing enzyme (%)=[1−(A−B)/(C−B)]*100
A: Peak area value of 20-HETE/peak area value of internal standard substance with addition of compound
B: Peak area value of 20-HETE/peak area value of internal standard substance without addition of compound and NADPH
C: Peak area value of 20-HETE/peak area value of internal standard substance without addition of compound
(3) Inhibition Test for Compound a and Compound B Disclosed in WO03/022821 Against 20-HETE Producing Enzymes Using Human Kidney Microsomes
For compound A and compound B disclosed in WO03/022821, which have been described above, the 50% inhibitory concentration (IC50 value) against 20-HETE producing enzymes was calculated according to the method described in Test Example 2.
On the other hand, as described above, in Test Example 2, nonradioactive arachidonic acid was used as a substrate for 20-HETE producing reaction, and the amount of 20-HETE produced was measured using LC-MS/MS. In this case, the concentration of arachidonic acid, the substrate, is 20 μM.
In recent years, it is recommended that the substrate concentration for calculating the IC50 value be set at the Km value (Assay Guidance Manual, Sittampalam et. al. (URL: http://www.ncbi.nlm.nih.gov/books/NBK53196/)). According to this, in Test Example 2 described above, human kidney microsomes were used to calculate the Km value, and the calculated Km value of 20 μM was set as the concentration of the substrate, arachidonic acid.

[4] = E. coli membrane fraction expressing human CYP4F2, 2.5 μM luciferine derivative, room temperature 60 minutes
[5] = E. coli membrane fraction expressing human CYP4A11, 60 μM luciferine derivative, room temperature 60 minutes
[6] = human CYP4F2, luciferine derivative, luminescence
[7] = human CYP4A11, luciferine derivative, luminescence

Sequence of human CYP4A11 (Q02928 5-519): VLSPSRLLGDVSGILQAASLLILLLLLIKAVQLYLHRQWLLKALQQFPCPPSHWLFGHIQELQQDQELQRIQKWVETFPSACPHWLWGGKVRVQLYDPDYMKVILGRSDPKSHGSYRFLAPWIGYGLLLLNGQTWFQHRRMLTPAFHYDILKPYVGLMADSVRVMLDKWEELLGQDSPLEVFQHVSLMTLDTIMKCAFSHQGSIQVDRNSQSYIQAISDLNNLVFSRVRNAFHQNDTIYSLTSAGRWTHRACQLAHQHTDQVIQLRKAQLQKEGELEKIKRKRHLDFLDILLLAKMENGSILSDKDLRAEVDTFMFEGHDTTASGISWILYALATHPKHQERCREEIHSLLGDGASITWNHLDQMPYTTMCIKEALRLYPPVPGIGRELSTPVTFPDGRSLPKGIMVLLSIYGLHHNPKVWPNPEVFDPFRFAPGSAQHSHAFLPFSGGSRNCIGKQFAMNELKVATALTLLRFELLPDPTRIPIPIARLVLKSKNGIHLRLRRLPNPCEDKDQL
Sequence of human CYP4F2 (P78329 5-520): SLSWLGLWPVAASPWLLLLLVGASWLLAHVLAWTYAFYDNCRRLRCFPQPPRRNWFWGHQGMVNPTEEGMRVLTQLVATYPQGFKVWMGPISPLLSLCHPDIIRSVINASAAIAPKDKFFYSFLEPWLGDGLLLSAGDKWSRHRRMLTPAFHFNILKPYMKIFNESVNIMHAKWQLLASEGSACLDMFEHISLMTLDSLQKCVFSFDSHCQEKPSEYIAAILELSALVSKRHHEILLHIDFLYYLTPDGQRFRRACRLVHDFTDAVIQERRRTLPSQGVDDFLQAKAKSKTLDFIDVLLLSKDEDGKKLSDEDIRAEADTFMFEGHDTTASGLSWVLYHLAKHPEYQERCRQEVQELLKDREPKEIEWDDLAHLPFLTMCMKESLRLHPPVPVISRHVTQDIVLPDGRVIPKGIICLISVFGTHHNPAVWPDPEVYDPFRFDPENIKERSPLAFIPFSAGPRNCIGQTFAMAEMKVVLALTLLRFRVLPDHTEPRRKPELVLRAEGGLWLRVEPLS

SMILES | IC50 [1, 4] [nM] | IC50 [2, 5] [nM] | inhibitory activities against 20-HETE producing enzymes compared to compound A and compound B [3] | IC50 [3] [nM] | IC50 [1, 6] [nM] | IC50 [2, 7] [nM]
CC(=O)N1CCN(CCOc2ccc(-c3ccn[nH]3)cc2)CC1 [Compound A, reference compound] | 1000 | 11000 | – | 408 | – | –
CCOC(=O)N1CCN(CCOc2ccc(-c3ccn[nH]3)cn2)CC1 [Compound B, reference compound] | 36000 | > 50000 | – | 15600 | – | –
O=C(O)C12CC(CCCCCCOc3ccc(-c4ccn[nH]4)nc3)(C1)C2 [Example 1-53] | 330 | 61 | stronger inhibitory activities | 14 | – | –
O=C(O)C1CCc2ccc(COc3ccc(-c4ccn[nH]4)nc3)cc2C1 (stereo not drawn) [Example 1-56] | 170 | 27 | stronger inhibitory activities | 20 | – | –
CC(C)(COCCCCCCOc1ccc(-c2ccn[nH]2)nc1)C(=O)O [Example 1-57, 2,2-Dimethyl-3-[6-[[6-(1H-pyrazol-5-yl)-3-pyridinyl]oxy]hexoxy]propanoic Acid] | 340 | 110 | stronger inhibitory activities | 19 | – | –
O=C(O)C1COc2ccc(COc3ccc(-c4ccn[nH]4)nc3)cc2C1 (stereo not drawn) [Example 1-68] | 640 | 28 | stronger inhibitory activities | 26 | – | –
O=C(O)C1CCc2ccc(COc3ccc(-c4ccn[nH]4)nc3)cc2O1 (stereo not drawn) [Example 1-70] | 140 | 62 | stronger inhibitory activities | 37 | – | –
CC(C)(OCCCCCCCOc1ccc(-c2cnco2)nc1)C(=O)O [Example 76-1, 2-Methyl-2-[7-[6-(1,3-oxazol-5-yl)pyridin-3-yl]oxyheptoxy]propanoic Acid] | – | – | – | – | 1500 | 740

Now from value to compound:

IC50 [1, 4] [nM] | IC50 [2, 5] [nM] | inhibitory activities against 20-HETE producing enzymes compared to compound A and compound B [3] | IC50 [3] [nM] | IC50 [1, 6] [nM] | IC50 [2, 7] [nM] | SMILES
890 | 23 | stronger inhibitory activities | 26 | – | – | O=C(O)C1CC1c1cccc(COc2ccc(-c3ccn[nH]3)nc2)c1 (single isomer, unassigned) [Example 26-2, trans-2-[3-[[6-(1H-Pyrazol-5-yl)-3-pyridinyl]oxymethyl]phenyl]-1-cyclopropanecarboxylic Acid (Optically Active Substance)]
1500 | 24 | stronger inhibitory activities | 30 | – | – | O=C(O)C1CC1c1cccc(COc2ccc(-c3ccn[nH]3)nc2)c1 (single isomer, unassigned) [Example 26-3, trans-2-[3-[[6-(1H-Pyrazol-5-yl)-3-pyridinyl]oxymethyl]phenyl]-1-cyclopropanecarboxylic Acid (Optically Active Substance, Enantiomer of Compound of Example 26-2)]
24 | 190 | stronger inhibitory activities | 10 | – | – | O=C(O)C1(CCCCCCCCOc2ccc(-c3ccn[nH]3)nc2)CCOCC1 [Example 3-1, 4-[8-[[6-(1H-Pyrazol-5-yl)-3-pyridinyl]oxy]octyl]-4-oxanecarboxylic Acid]
33 | 22 | stronger inhibitory activities | 8.2 | – | – | O=C(O)c1ccc2c(c1)CC(COc1ccc(-c3ccn[nH]3)nc1)CC2 (stereo not drawn) [Example 5-1, 7-[[6-(1H-Pyrazol-5-yl)-3-pyridinyl]oxymethyl]-5,6,7,8-tetrahydronaphthalene-2-carboxylic Acid]
– | – | – | – | 780 | 720 | CC(C)(COc1ccc(COc2ccc(-c3ccn[nH]3)nc2)cn1)C(=O)O [Example 75-5]
– | – | – | – | 1700 | 180 | CC(C)(COc1cccc(COc2ccc(-c3ccn[nH]3)nc2)n1)C(=O)O [Example 75-6]
